From publication PMC9814635 (Communications Chemistry, 2022)

What was measured:
FGFR1 = details: printed as potency 'toward FGFRs' in the FGFR1 comparison; cited from earlier work
parental Ba/F3 cells = assay: cells; details: Mus musculus, BaF3, 72 h, read-out: IC50 proliferation, parental Ba/F3 cells
Method: (§1) Cell proliferation and viability were evaluated in parental Ba/F3 cells and TEL-FGFR1-4/FGFR mutation-translocated Ba/F3 cell lines.

[1] = tested on: FGFR4-translocated Ba/F3 cells; assay: cells; details: Mus musculus, BaF3, 72 h, read-out: IC50 proliferation, FGFR4 Ba/F3 cells
Method: as §1

[2] = Phase II FIGHT-202, patients; cited from earlier work

Compound | IC50 (FGFR1) | IC50 (parental Ba/F3 cells) | IC50 [1] | complete responses [2] | disease control rate [2] | objective response rate [2]
CCN1C(=O)N(c2c(F)c(OC)cc(OC)c2F)Cc2cnc3[nH]c(CN4CCOCC4)cc3c21 [pemigatinib] | – | > 5000 nM | 12 nM | 2.8% | 82.0% | 35.5%
